Active and inactive are the calls of the source. The rule behind the calls is not given here.
Assays:
Pseudomonas aeruginosa [1] = assay: Antibiofilm activity against Pseudomonas aeruginosa PAO1 in ABTGC medium assessed as inhibition of biofilm formation incubated for 24 hrs by crystal violet staining based absorbance assay; format: functional, organism-based; conditions: PAO1, 24 h
Pseudomonas aeruginosa [2] = assay: Antibacterial activity against Pseudomonas aeruginosa PAO1 in ABTGC medium assessed as bacterial growth inhibition incubated for 16 hrs; format: functional
Pseudomonas aeruginosa [3] = assay: Inhibition of iron homeostasis in Pseudomonas aeruginosa PAO1 in ABTGC medium assessed as decrease in iron level at 1.25 to 20 uM in presence of FeCl3 by fluorescence based microplate reader analysis (Rvb= 9.6+/-2.00 microM); format: functional; conditions: dose 1.25-20 µM
[4] = Metal chelating activity assessed as Fe3+-compound complex formation assessed as pFe(III) value by fluorescence method
Pseudomonas aeruginosa [5] = assay: In vivo antibacterial activity against Pseudomonas aeruginosa PAO1 infected in Balb/c mouse wound infection model assessed as healing degree of wound at 0.005 mg/ml,TOP QD for 3 days and measured after 9 days; format: functional, organism-based; conditions: time 3.0 day
[6] = Toxicity in Balb/c mouse wound infection model infected with Pseudomonas aeruginosa PAO1 assessed as morphological changes in liver at 0.0025 to 0.5 mg/ml,TOP for 3 days by H and E staining based analysis; format: tissue-based; conditions: in vivo, topical_or_ocular, 72 h, dose 0.0025-0.5 mg/ml, time 3 day
[7] = Toxicity in Balb/c mouse wound infection model infected with Pseudomonas aeruginosa PAO1 assessed as morphological changes in heart at 0.0025 to 0.5 mg/ml,TOP for 3 days by H and E staining based analysis; format: tissue-based; conditions: in vivo, topical_or_ocular, 72 h, dose 0.0025-0.5 mg/ml, time 3 day
[8] = Toxicity in Balb/c mouse wound infection model infected with Pseudomonas aeruginosa PAO1 assessed as morphological changes in kidney at 0.0025 to 0.5 mg/ml,TOP for 3 days by H and E staining based analysis; format: tissue-based; conditions: in vivo, topical_or_ocular, 72 h, dose 0.0025-0.5 mg/ml, time 3 day
[9] = Toxicity in Balb/c mouse wound infection model infected with Pseudomonas aeruginosa PAO1 assessed as morphological changes in lung at 0.0025 to 0.5 mg/ml,TOP for 3 days by H and E staining based analysis; format: tissue-based; conditions: in vivo, topical_or_ocular, 72 h, dose 0.0025-0.5 mg/ml, time 3 day
Pseudomonas aeruginosa [10] = assay: In vivo antibacterial activity against Pseudomonas aeruginosa PAO1 infected in Balb/c mouse wound infection model assessed as reduction in bacterial survival rate at wounded area at 0.5 mg/ml,TOP QD for 3 days by CFU assay; format: functional; conditions: time 3 day
[11] = Toxicity in Balb/c mouse wound infection model infected with Pseudomonas aeruginosa PAO1 assessed as body weight change at 0.0025 mg/ml,TOP for 3 days in presence of N-hydroxy-7-((6-methyl-2-oxo-2H-chromen-4-yl)oxy)heptanamide; conditions: in vivo, topical_or_ocular, 72 h, time 3 day
[12] = Toxicity in Balb/c mouse wound infection model infected with Pseudomonas aeruginosa PAO1 assessed as morphological changes in lung at 0.0025 mg/ml,TOP for 3 days in presence of N-hydroxy-7-((6-methyl-2-oxo-2H-chromen-4-yl)oxy)heptanamide by H and E staining based analysis; format: tissue-based; conditions: in vivo, topical_or_ocular, 72 h, time 3 day
[13] = Toxicity in Balb/c mouse wound infection model infected with Pseudomonas aeruginosa PAO1 assessed as body weight change at 0.0025 to 0.5 mg/ml,TOP for 3 days; conditions: in vivo, topical_or_ocular, 72 h, dose 0.0025-0.5 mg/ml, time 3 day
[14] = Toxicity in Balb/c mouse wound infection model infected with Pseudomonas aeruginosa PAO1 assessed as morphological changes in heart at 0.0025 mg/ml,TOP for 3 days in presence of N-hydroxy-7-((6-methyl-2-oxo-2H-chromen-4-yl)oxy)heptanamide by H and E staining based analysis; format: tissue-based; conditions: in vivo, topical_or_ocular, 72 h, time 3 day
Pseudomonas aeruginosa [15] = assay: In vivo antibacterial activity against Pseudomonas aeruginosa PAO1 infected in Balb/c mouse wound infection model assessed as healing degree of wound at 0.5 mg/ml,TOP QD for 3 days and measured after 9 days; format: functional, organism-based; conditions: time 3.0 day
[16] = Toxicity in Balb/c mouse wound infection model infected with Pseudomonas aeruginosa PAO1 assessed as morphological changes in spleen at 0.0025 to 0.5 mg/ml,TOP for 3 days by H and E staining based analysis; format: tissue-based; conditions: in vivo, topical_or_ocular, 72 h, dose 0.0025-0.5 mg/ml, time 3 day
[17] = Toxicity in Balb/c mouse wound infection model infected with Pseudomonas aeruginosa PAO1 assessed as morphological changes in kidney at 0.0025 mg/ml,TOP for 3 days in presence of N-hydroxy-7-((6-methyl-2-oxo-2H-chromen-4-yl)oxy)heptanamide by H and E staining based analysis; format: tissue-based; conditions: in vivo, topical_or_ocular, 72 h, time 3 day
[18] = Toxicity in Balb/c mouse wound infection model infected with Pseudomonas aeruginosa PAO1 assessed as morphological changes in spleen at 0.0025 mg/ml,TOP for 3 days in presence of N-hydroxy-7-((6-methyl-2-oxo-2H-chromen-4-yl)oxy)heptanamide by H and E staining based analysis; format: tissue-based; conditions: in vivo, topical_or_ocular, 72 h, time 3 day
[19] = Toxicity in Balb/c mouse wound infection model infected with Pseudomonas aeruginosa PAO1 assessed as morphological changes in liver at 0.0025 mg/ml,TOP for 3 days in presence of N-hydroxy-7-((6-methyl-2-oxo-2H-chromen-4-yl)oxy)heptanamide by H and E staining based analysis; format: tissue-based; conditions: in vivo, topical_or_ocular, 72 h, time 3 day

Structure (SMILES)	IC50 (Pseudomonas aeruginosa [1])	MIC (Pseudomonas aeruginosa [2])	also measured
O=C(CCCCCOc1cc(=O)oc2ccc(Br)cc12)NO	> 100 µM	> 256 µM	–
COc1ccc2c(OCCCCC(=O)NO)cc(=O)oc2c1	> 100 µM	> 256 µM	–
O=C(CCCCCCOc1cc(=O)oc2ccccc12)NO	69.2 µM	> 256 µM	–
O=C(CCCCOc1cc(=O)oc2ccc(Cl)cc12)NO	> 100 µM	> 256 µM	–
Cc1ccc(OCCCCCCC(=O)NO)cc1	> 100 µM	> 256 µM	–
CC[C@H]1OC(=O)[C@H](C)[C@@H](O[C@H]2C[C@@](C)(OC)[C@@H](O)[C@H](C)O2)[C@H](C)[C@@H](O[C@@H]2O[C@H](C)C[C@H](N(C)C)[C@H]2O)[C@](C)(O)C[C@@H](C)CN(C)[C@H](C)[C@@H](O)[C@]1(C)O [AZITHROMYCIN]	17.3 µM	–	–
Cc1ccc2oc(=O)cc(OCCCCCC(=O)NO)c2c1	12.3 µM	> 256 µM	–
COc1ccc2oc(=O)cc(OCCCCCC(=O)NO)c2c1	> 100 µM	> 256 µM	–
COc1ccc2oc(=O)cc(OCCCCCCC(=O)NO)c2c1	> 100 µM	> 256 µM	–
O=C(CCCOc1cc(=O)oc2ccc(Cl)cc12)NO	> 100 µM	> 256 µM	–
Cc1ccc2oc(=O)cc(NCCCC(=O)NO)c2c1	> 100 µM	> 256 µM	–
O=C(CCCCCCOc1cc(=O)oc2cc(Cl)ccc12)NO	> 100 µM	> 256 µM	–
Cc1ccccc1OCCCCCCC(=O)NO	> 100 µM	> 256 µM	–
O=C(CCCCCOc1cc(=O)oc2cc(Cl)ccc12)NO	> 100 µM	> 256 µM	–
Cc1ccc2oc(=O)cc(OCCCCCCCC(=O)NO)c2c1	> 100 µM	> 256 µM	–
COc1ccc2c(OCCCCCCC(=O)NO)cc(=O)oc2c1	4.74 µM	> 256 µM	–
Cc1ccc2oc(=O)cc(OCc3ccc(C(=O)NO)cc3)c2c1	> 100 µM	> 256 µM	–
O=C(CCCCCCOc1cc(=O)oc2ccc(Cl)cc12)NO	> 100 µM	> 256 µM	–
O=C(CCCCCOc1cc(=O)oc2ccc(F)cc12)NO	58.6 µM	> 256 µM	–
Cc1ccc2c(OCCCCC(=O)NO)cc(=O)oc2c1	> 100 µM	> 256 µM	–
Cc1c(O)c(=O)ccn1C [DEFERIPRONE]	–	–	Activity (Pseudomonas aeruginosa [3]): 7.74 µM; pFe(III) [4]: 20.1
O=C(CCCCCCOc1cc(=O)oc2ccc(F)cc12)NO	26.4 µM	> 256 µM	–
O=C(CCCCCCOc1cc(=O)oc2ccc(Br)cc12)NO	44.4 µM	> 256 µM	–
Cc1cccc(OCCCCCCC(=O)NO)c1	> 100 µM	> 256 µM	–
CCCCCCCOc1cc(=O)oc2ccc(C)cc12	> 100 µM	> 256 µM	–
O=C(CCCCCOc1cc(=O)oc2ccccc12)NO	69.7 µM	> 256 µM	–
Cc1ccc2c(OCCCCCCC(=O)NO)cc(=O)oc2c1	> 100 µM	> 256 µM	–

Structure (SMILES)	IC50 (Pseudomonas aeruginosa [1])	MIC (Pseudomonas aeruginosa [2])	also measured
CCCCCCCCOc1cc(=O)oc2ccc(C)cc12	> 100 µM	> 256 µM	–
O=C(CCCCCOc1cc(=O)oc2ccc(Cl)cc12)NO	> 100 µM	> 256 µM	–
O=C(CCCCOc1cc(=O)oc2ccccc12)NO	42.3 µM	> 256 µM	–
CCCCCCOc1cc(=O)oc2ccc(C)cc12	> 100 µM	> 256 µM	–
O=C(CCCOc1cc(=O)oc2ccc(Br)cc12)NO	70 µM	> 256 µM	–
O=C(O)c1cn(C2CC2)c2cc(N3CCNCC3)c(F)cc2c1=O	–	–	Activity (Pseudomonas aeruginosa [5]): Active
Cc1ccc2oc(=O)cc(OCCCC(=O)NO)c2c1	77.4 µM	> 256 µM	–
NC[C@H]1O[C@H](O[C@H]2[C@H](O)[C@@H](O[C@H]3O[C@H](CO)[C@@H](O)[C@H](N)[C@H]3O)[C@H](N)C[C@@H]2N)[C@H](N)C[C@@H]1O [TOBRAMYCIN]	–	–	Activity [6]: Non-Toxic; Activity [7]: Non-Toxic; Activity [8]: Non-Toxic; Activity [9]: Non-Toxic; Activity (Pseudomonas aeruginosa [10]): 5.77%; Activity [11]: Non-Toxic; Activity [12]: Non-Toxic; Activity [13]: Non-Toxic; Activity [14]: Non-Toxic; Activity (Pseudomonas aeruginosa [15]): Active; Activity [16]: Non-Toxic; Activity [17]: Non-Toxic; Activity [18]: Non-Toxic; Activity [19]: Non-Toxic
O=C(CCCCCCOc1ccccc1)NO	> 100 µM	> 256 µM	–
Cc1ccc2oc(=O)cc(OCCCCC(=O)NO)c2c1	12.8 µM	> 256 µM	–
COc1ccc2c(OCCCCCC(=O)NO)cc(=O)oc2c1	9.37 µM	> 256 µM	–
O=C(CCCCOc1cc(=O)oc2ccc(Br)cc12)NO	29.7 µM	> 256 µM	–
COc1ccc2oc(=O)cc(OCCCCC(=O)NO)c2c1	> 100 µM	> 256 µM	–
Cc1ccc2c(OCCCCCC(=O)NO)cc(=O)oc2c1	> 100 µM	> 256 µM	–
Cc1ccc2c(OCCCC(=O)NO)cc(=O)oc2c1	> 100 µM	> 256 µM	–
O=C(CCCOc1cc(=O)oc2ccccc12)NO	88.4 µM	> 256 µM	–
Cc1ccc2oc(=O)cc(NCCCCCC(=O)NO)c2c1	> 100 µM	> 256 µM	–
COc1ccc2c(OCCCC(=O)NO)cc(=O)oc2c1	> 100 µM	> 256 µM	–
O=C(CCCCOc1cc(=O)oc2cc(Cl)ccc12)NO	42.3 µM	> 256 µM	–
O=C(CCCCOc1cc(=O)oc2ccc(F)cc12)NO	9.8 µM	> 256 µM	–
COc1ccc2oc(=O)cc(OCCCC(=O)NO)c2c1	> 100 µM	> 256 µM	–
O=C(CCCOc1cc(=O)oc2cc(Cl)ccc12)NO	88.4 µM	> 256 µM	–
Cc1ccc2oc(=O)cc(NCCCCC(=O)NO)c2c1	> 100 µM	> 256 µM	–
Cc1ccc2oc(=O)cc(NCCCCCCC(=O)NO)c2c1	> 100 µM	> 256 µM	–
Cc1ccc2oc(=O)cc(OCCCCCCCCC(=O)NO)c2c1	20.4 µM	> 256 µM	–
O=C(CCCOc1cc(=O)oc2ccc(F)cc12)NO	> 100 µM	> 256 µM	–
